Data: PMC5355811 (Nature Communications, 2017)
Like-named read-outs stand apart in the source and are kept apart here.

What was measured:
Format in all cases: cell-based
[1] = system: Ba/F3 cells expressing EGFR-del19; assay: CellTiter-Glo cell viability assay, Ba/F3 EGFR-del19; conditions: Mus musculus, BaF3, 72 h
Protocol: (§1) Three-day cell viability assays were carried out by plating 2,000, 1,500 and 2,000 cells per well of Ba/F3, PC9 or MGH121, respectively, into black transparent-bottom 96-well plates. On the same day for Ba/F3 cells and the following day for PC9 and MGH121 cells, the cells were treated with each TKI across a 10-dose range from 0.3 nmol l^−1 to 10 μmol l^−1. After 72 h of drug treatment, cell viability was measured using the CellTiter-Glo assay (Promega).

[2] = system: Ba/F3 cells expressing EGFR-C797S/T790M/del19; assay: CellTiter-Glo cell viability assay, Ba/F3 EGFR-C797S/T790M/del19; conditions: for IC50: Mus musculus, BaF3, 72 h, 72 h
Protocol: as §1

[3] = system: Ba/F3 cells expressing EGFR-L858R; assay: CellTiter-Glo cell viability assay, Ba/F3 EGFR-L858R; conditions: Mus musculus, BaF3, 72 h
Protocol: as §1

[4] = system: Ba/F3 cells expressing EGFR-T790M/L858R; assay: CellTiter-Glo cell viability assay, Ba/F3 EGFR-T790M/L858R; conditions: Mus musculus, BaF3, 72 h
Protocol: as §1

[5] = system: Ba/F3 cells of EGFR-del19; assay: Drug sensitivity screening at 100 nM, Ba/F3 EGFR-del19; conditions: 72 h, DMSO = 100; for viability at 0.1 µM: Mus musculus, BaF3, 72 h, 100 nM inhibitor, mean of three independent experiments (Fig. 1a data), read-out: Relative cell viability (ratio to DMSO control), del19; for Relative cell viability (% of DMSO control) in del19 Ba/F3 cells: 100 nM
Protocol: (§2) After the incubation, cell viability was measured using CellTiter-Glo assay. The relative cell viability was calculated as a ratio of each value to that of the DMSO control.

[6] = system: Ba/F3 cells of EGFR-C797S/T790M/del19; assay: Drug sensitivity screening at 100 nM, Ba/F3 EGFR-C797S/T790M/del19; conditions: Mus musculus, BaF3, 72 h, 100 nM inhibitor, 72 h, DMSO = 100; mean of three independent experiments (Fig. 1a data)
Protocol: as §2

[7] = system: Ba/F3 cells expressing EGFR-T790M/del19; assay: CellTiter-Glo cell viability assay, Ba/F3 EGFR-T790M/del19; conditions: Mus musculus, BaF3, 72 h
Protocol: as §1

[8] = system: Ba/F3 cells expressing EGFR-C797S/T790M/L858R; assay: CellTiter-Glo cell viability assay, Ba/F3 EGFR-C797S/T790M/L858R; conditions: Mus musculus, BaF3, 72 h
Protocol: as §1

[9] = system: Ba/F3 cells of EGFR-T790M/del19; assay: Drug sensitivity screening at 100 nM, Ba/F3 EGFR-T790M/del19; conditions: 72 h, DMSO = 100; for Relative cell viability (% of DMSO control): 100 nM; for viability at 0.1 µM: Mus musculus, BaF3, 72 h, 100 nM inhibitor, mean of three independent experiments (Fig. 1a data), read-out: Relative cell viability (ratio to DMSO control), del19/T790M
Protocol: as §2

[10] = system: PC9 parent cells (del19); assay: CellTiter-Glo cell viability assay, PC9 parent; conditions: Table 1d, ALK–TKIs; 72 h; read-out: IC50, PC9 parent
Protocol: as §1

[11] = system: PC9 T790M cells (T790M/del19); assay: CellTiter-Glo cell viability assay, PC9 T790M; conditions: Table 1d, ALK–TKIs; 72 h; read-out: IC50, PC9 T790M
Protocol: as §1

[12] = system: PC9 triple-mutant cells (C797S/T790M/del19); assay: CellTiter-Glo cell viability assay, PC9 triple mutant; conditions: Table 1d, ALK–TKIs; 72 h; read-out: IC50, PC9 triple
Protocol: as §1

[13] = system: EGFR phosphorylation in PC9 triple-mutant cells; assay: Western blotting of EGFR signalling, PC9 triple mutant
Protocol: Tumour tissues or cells grown under the specified conditions were washed with cold PBS before addition of the SDS lysis buffer (100 mM Tris, 1% SDS, 10% glycerol). Lysates were transferred to microtubes, boiled for 5 min at 100 °C and then vortexed. Protein quantification was performed using the BCA Protein Assay Reagent (Pierce) according to the manufacturer's protocol. Western blot analyses were conducted after separation by SDS-PAGE and transferred to polyvinylidene difluoride membranes.

[14] = Fig. 3c, read-out: IC50, Ba/F3 Del19
[15] = Supplementary Fig. 8e, read-out: IC50, Ba/F3 L858R
[16] = Supplementary Fig. 8e, read-out: IC50, Ba/F3 T790M/L858R
[17] = Fig. 3c, read-out: IC50, Ba/F3 T790M/del19

## Cc1cc(Nc2ncc(Cl)c(Nc3ccccc3S(=O)(=O)C(C)C)n2)c(OC(C)C)cc1C1CCNCC1 [Ceritinib, ceritinib]
[1]; [14]
  IC50: 524 nM
[2]; Fig. 3b,c
  IC50: 780 nM
[3]; [15]
  IC50: 1160 nM
[4]; [16]
  IC50: 685 nM
[5]
  viability at 0.1 µM: 96.5%
[6]
  viability at 0.1 µM: 135%

## COc1cc(N2CCC(N3CCN(C)CC3)CC2)ccc1Nc1ncnc(Nc2ccccc2S(=O)(=O)C(C)C)n1 [ASP3026]
[1]; [14]
  IC50: 450 nM
[7]; [17]
  IC50: 2160 nM
[2]; Fig. 3b,c
  IC50: 1510 nM
[3]; [15]
  IC50: 948 nM
[4]; [16]
  IC50: 1690 nM
[8]; Supplementary Fig. 8e
  IC50: 2150 nM
[5]; experiment 1
  Relative cell viability (% of DMSO control) in del19 Ba/F3 cells: 92.7195
[5]; experiment 2
  Relative cell viability (% of DMSO control) in del19 Ba/F3 cells: 100.941
[5]; experiment 3
  Relative cell viability (% of DMSO control) in del19 Ba/F3 cells: 101.38
[5]
  viability at 0.1 µM: 98.3%
[9]; experiment 1
  Relative cell viability (% of DMSO control): 93.2109
[9]; experiment 2
  Relative cell viability (% of DMSO control): 112.991
[9]; experiment 3
  Relative cell viability (% of DMSO control): 110.516
[9]
  viability at 0.1 µM: 106%
[6]
  viability at 0.1 µM: 126%

## COc1cc(N2CCC(N(C)C)CC2)ccc1Nc1ncc(Cl)c(Nc2ccccc2P(C)(C)=O)n1 [AP26113-analog]
[1]; [14]
  IC50: 36.9 nM
[7]; [17]
  IC50: 139 nM
[2]; Fig. 3b,c
  IC50: < 100 nM
[2]; with or without cetuximab 10 μg ml^−1, 72 h
  change of IC50 by combination with cetuximab, triple-del19 Ba/F3 cells: approximately three-fold decrease of IC50
[3]; [15]
  IC50: 92.1 nM
[4]; [16]
  IC50: 36 nM
[8]; Supplementary Fig. 8e
  IC50: 69.2 nM
[10]
  IC50: 46.2 nM
[11]
  IC50: 89.3 nM
[12]
  IC50: 195 nM

## Cc1cc(C(=O)Nc2nc3cccc(Cl)c3n2[C@@H]2CCCCN(C(=O)/C=C/CN(C)C)C2)ccn1 [EGF-816]
[1]; Table 1a, read-out: IC50, Ba/F3-EGFR-Del19
  IC50: 2.9 nM
[7]; Table 1a, read-out: IC50, Ba/F3-EGFR-T790M/del19
  IC50: 18.5 nM
[2]; Table 1a, read-out: IC50, Ba/F3-EGFR-C797S/T790M/del19
  IC50: 1410 nM
[3]; Table 1b, read-out: IC50, Ba/F3-EGFR-L858R
  IC50: 7.7 nM
[4]; Table 1b, read-out: IC50, Ba/F3-EGFR-T790M/L858R
  IC50: 15.5 nM
[8]; Table 1b, read-out: IC50, Ba/F3-EGFR-C797S/T790M/L858R
  IC50: 2280 nM

## COc1cc(N2CCC(N)CC2)ccc1Nc1ncc(Cl)c(-c2c[nH]c3ccccc23)n1 [AZD3463]
[1]; [14]
  IC50: 90 nM
[7]; [17]
  IC50: 175 nM
[2]; Fig. 3b,c
  IC50: 132 nM
[3]; [15]
  IC50: 287 nM
[4]; [16]
  IC50: 184 nM
[8]; Supplementary Fig. 8e
  IC50: 168 nM
[10]
  IC50: 253 nM
[11]
  IC50: 378 nM
[12]
  IC50: 622 nM
[5]; experiment 1
  Relative cell viability (% of DMSO control) in del19 Ba/F3 cells: 35.8012
[5]; experiment 2
  Relative cell viability (% of DMSO control) in del19 Ba/F3 cells: 31.981
[5]; experiment 3
  Relative cell viability (% of DMSO control) in del19 Ba/F3 cells: 37.0414
[5]
  viability at 0.1 µM: 34.9%
[9]; experiment 1
  Relative cell viability (% of DMSO control): 78.5876
[9]; experiment 2
  Relative cell viability (% of DMSO control): 91.5008
[9]; experiment 3
  Relative cell viability (% of DMSO control): 89.0461
[9]
  viability at 0.1 µM: 86.4%
[6]
  viability at 0.1 µM: 89.3%
[13]
  EGFR phosphorylation and downstream signalling, PC9 triple-mutant cells: mild activity

## CC(=O)Nc1cccc(-n2c(=O)n(C3CC3)c(=O)c3c(Nc4ccc(I)cc4F)n(C)c(=O)c(C)c32)c1 [Trametinib, trametinib]
[5]; experiment 1
  Relative cell viability (% of DMSO control) in del19 Ba/F3 cells: 0.7444
[5]; experiment 2
  Relative cell viability (% of DMSO control) in del19 Ba/F3 cells: 0.954
[5]; experiment 3
  Relative cell viability (% of DMSO control) in del19 Ba/F3 cells: 0.9176
[5]
  viability at 0.1 µM: 0.872%
[9]; experiment 1
  Relative cell viability (% of DMSO control): 11.0855
[9]; experiment 2
  Relative cell viability (% of DMSO control): 11.5677
[9]; experiment 3
  Relative cell viability (% of DMSO control): 12.1404
[9]
  viability at 0.1 µM: 11.6%
[6]
  viability at 0.1 µM: 44.2%
